Data: patent publication US9815839B2, “N-(1-(substituted-phenyl)ethyl)-9H-purin-6-amines as PI3K inhibitors” (Incyte Corporation, priority 2010, dated 2017)

What was measured:
PI3Kδ (p110δ/p85α) = molecular target: T1, PI3Kδ (p110δ/p85α) (Homo sapiens, UniProt O00329); assay: PI3Kδ scintillation proximity assay; type: biochemical; settings: 20 μM ATP, 4 nM PI3Kδ
T1 construct: purchased Millipore (Bedford, Mass.)
Method in brief: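 p110δ/p85α (4 nM) phosphorylated 20 μM PIP2 with 20 μM ATP plus [γ-33P]ATP in 20 mM MOPS pH 6.7, 10 mM MgCl2, 5 mM DTT, 0.03% CHAPS, 0.5% DMSO, 210 min at room temperature. EDTA quench, WGA SPA bead capture, scintillation counting; IC50 from log-concentration fit.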

[1] = system: Pfeiffer cell line (diffuse large B cell lymphoma); assay: Pfeiffer cell proliferation assay; type: cell-based; settings: Homo sapiens, Pfeiffer, Pfeiffer cells, 3-4 days plus 12 hours [3H]-thymidine incorporation
Method in brief: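 Pfeiffer DLBCL cells grown in RPMI/10% FBS at 2×10^3 cells/well in ultra-low-binding plates with a range of compound concentrations for 3-4 days. [3H]-thymidine (1 μCi/well) was then added for 12 h more. Incorporation was read by filtration and scintillation counting.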

T1 sequence (O00329 whole entry, species assumed): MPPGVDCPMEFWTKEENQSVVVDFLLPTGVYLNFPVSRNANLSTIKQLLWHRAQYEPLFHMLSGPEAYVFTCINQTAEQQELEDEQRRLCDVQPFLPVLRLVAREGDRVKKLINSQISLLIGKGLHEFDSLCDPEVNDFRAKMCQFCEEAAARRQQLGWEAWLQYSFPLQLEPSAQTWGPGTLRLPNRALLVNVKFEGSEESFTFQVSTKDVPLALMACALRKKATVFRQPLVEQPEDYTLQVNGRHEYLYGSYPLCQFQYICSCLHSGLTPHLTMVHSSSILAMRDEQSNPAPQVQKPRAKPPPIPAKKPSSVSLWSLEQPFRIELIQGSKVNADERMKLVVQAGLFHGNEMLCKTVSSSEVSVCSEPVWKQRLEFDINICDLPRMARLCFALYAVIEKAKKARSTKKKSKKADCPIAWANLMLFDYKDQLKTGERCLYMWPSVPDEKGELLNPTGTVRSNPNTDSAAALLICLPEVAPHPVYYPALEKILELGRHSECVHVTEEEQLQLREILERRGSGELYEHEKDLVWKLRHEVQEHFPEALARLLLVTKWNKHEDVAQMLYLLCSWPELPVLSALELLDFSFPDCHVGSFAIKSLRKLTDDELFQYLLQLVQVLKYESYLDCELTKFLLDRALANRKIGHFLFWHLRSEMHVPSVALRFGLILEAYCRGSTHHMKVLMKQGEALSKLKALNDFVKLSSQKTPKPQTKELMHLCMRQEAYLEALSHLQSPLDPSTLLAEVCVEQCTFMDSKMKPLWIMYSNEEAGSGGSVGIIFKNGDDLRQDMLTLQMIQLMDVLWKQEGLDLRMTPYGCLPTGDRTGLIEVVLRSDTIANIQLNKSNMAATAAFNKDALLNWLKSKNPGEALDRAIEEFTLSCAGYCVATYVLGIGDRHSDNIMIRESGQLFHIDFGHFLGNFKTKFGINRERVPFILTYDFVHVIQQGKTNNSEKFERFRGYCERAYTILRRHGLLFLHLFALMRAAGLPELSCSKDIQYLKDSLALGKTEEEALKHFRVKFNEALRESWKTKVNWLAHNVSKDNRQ
T1 sequence (P27986 whole entry partner, species assumed): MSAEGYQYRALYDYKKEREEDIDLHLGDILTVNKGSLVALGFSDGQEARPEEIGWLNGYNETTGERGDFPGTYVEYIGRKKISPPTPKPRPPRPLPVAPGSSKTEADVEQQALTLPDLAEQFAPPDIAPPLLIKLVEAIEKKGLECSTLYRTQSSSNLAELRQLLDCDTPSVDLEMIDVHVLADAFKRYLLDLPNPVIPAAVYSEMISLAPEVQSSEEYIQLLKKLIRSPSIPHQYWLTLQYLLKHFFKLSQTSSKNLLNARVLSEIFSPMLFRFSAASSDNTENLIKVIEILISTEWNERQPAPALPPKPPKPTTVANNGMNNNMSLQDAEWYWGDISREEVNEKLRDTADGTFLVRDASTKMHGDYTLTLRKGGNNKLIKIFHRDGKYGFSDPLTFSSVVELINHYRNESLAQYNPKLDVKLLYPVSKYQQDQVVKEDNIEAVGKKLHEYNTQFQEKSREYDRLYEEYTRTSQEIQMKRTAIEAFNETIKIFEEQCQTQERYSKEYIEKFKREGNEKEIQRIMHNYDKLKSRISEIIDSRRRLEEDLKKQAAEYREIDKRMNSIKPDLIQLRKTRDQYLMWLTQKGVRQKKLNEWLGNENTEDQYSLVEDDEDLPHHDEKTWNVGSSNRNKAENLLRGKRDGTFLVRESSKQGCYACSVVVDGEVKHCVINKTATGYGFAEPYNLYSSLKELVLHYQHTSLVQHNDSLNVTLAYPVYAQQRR

| IC50 (PI3Kδ (p110δ/p85α)) [nM] | IC50 [1] [nM] | SMILES |
| --- | --- | --- |
| < 50 | < 100 | COc1ccc(-c2c(C)c(Cl)cc(C(C)Nc3ncnc4[nH]cnc34)c2OC)cc1OC (stereo not shown) [Example 96, N-[1-(5-chloro-2,3′,4′-trimethoxy-6-methylbiphenyl-3-yl)ethyl]-9H-purin-6-amine] |
| 50 to 100 | 100 to 500 | COc1ccc(-c2c(C)c(Cl)cc(C(C)Nc3ncnc4[nH]cnc34)c2OC)cc1Cl (stereo not shown) [Example 97, N-[1-(3′,5-dichloro-2,4′-dimethoxy-6-methylbiphenyl-3-yl)ethyl]-9H-purin-6-amine] |
| < 50 | < 100 | COc1c(C(C)Nc2ncnc3[nH]cnc23)cc(Cl)c(C)c1-c1ccnc(Cl)c1 (stereo not shown) [Example 98, N-{1-[5-chloro-3-(2-chloropyridin-4-yl)-2-methoxy-4-methylphenyl]ethyl}-9H-purin-6-amine] |
| < 50 | > 1000 | COc1c(C(C)Nc2ncnc3[nH]cnc23)cc(Cl)c(C)c1-c1cccc(N(C)C)c1 (stereo not shown) [Example 100, N-{1-[5-chloro-3′-(dimethylamino)-2-methoxy-6-methylbiphenyl-3-yl]ethyl}-9H-purin-6-amine] |
| < 50 | < 100 | Cc1c(Cl)cc(C(C)Nc2ncnc3[nH]cnc23)c(-c2cc(F)cc(F)c2)c1-c1cn[nH]c1 (stereo not shown) [Example 106, N-{1-[4-Chloro-3′,5′-difluoro-5-methyl-6-(1H-pyrazol-4-yl)biphenyl-2-yl]ethyl}-9H-purin-6-amine] |
| < 50 | 100 to 500 | Cc1n[nH]c(C)c1-c1c(C)c(Cl)cc(C(C)Nc2ncnc3[nH]cnc23)c1-c1cc(F)cc(F)c1 (stereo not shown) [Example 107, N-{1-[4-chloro-6-(3,5-dimethyl-1H-pyrazol-4-yl)-3′,5′-difluoro-5-methylbiphenyl-2-yl]ethyl}-9H-purin-6-amine] |
| < 50 | < 100 | COc1ncc(-c2c(C)c(Cl)cc(C(C)Nc3ncnc4[nH]cnc34)c2OC)cc1F (stereo not shown) [Example 109, N-{1-[5-chloro-3-(5-fluoro-6-methoxypyridin-3-yl)-2-methoxy-4-methylphenyl]ethyl]-9H-purin-6-amine] |

Continued, compound first:

| SMILES | IC50 (PI3Kδ (p110δ/p85α)) [nM] | IC50 [1] [nM] |
| --- | --- | --- |
| COc1c(C(C)Nc2ncnc3[nH]cnc23)cc(Cl)c(C)c1-c1ccc(N2CCOCC2)cc1 (stereo not shown) [Example 88, N-[1-(5-chloro-2-methoxy-6-methyl-4′-morpholin-4-ylbiphenyl-3-yl)ethyl]-9H-purin-6-amine] | < 50 | < 100 |
| COc1c(C(C)Nc2ncnc3[nH]cnc23)cc(Cl)c(C)c1-c1ccc(F)c(Cl)c1 (stereo not shown) [Example 89, N-[1-(3′,5-dichloro-4′-fluoro-2-methoxy-6-methylbiphenyl-3-yl)ethyl]-9H-purin-6-amine] | 50 to 100 | 500 to 1000 |
| CCOc1cccc(-c2c(C)c(Cl)cc(C(C)Nc3ncnc4[nH]cnc34)c2OC)c1 (stereo not shown) [Example 91, N-[1-(5-chloro-3′-ethoxy-2-methoxy-6-methylbiphenyl-3-yl)ethyl]-9H-purin-6-amine] | 50 to 100 | > 1000 |
| COc1c(C(C)Nc2ncnc3[nH]cnc23)cc(Cl)c(C)c1-c1ccc(Cl)c(F)c1 (stereo not shown) [Example 92, N-{1-(4′,5-dichloro-3'-fluoro-2-methoxy-6-methylbiphenyl-3-yl)ethyl]-9H-purin-6-amine] | 100 to 250 | 100 to 500 |
| COc1c(C(C)Nc2ncnc3[nH]cnc23)cc(Cl)c(C)c1-c1ccc(F)c(C(F)(F)F)c1 (stereo not shown) [Example 93, N-{1-[5-chloro-4′-fluoro-2-methoxy-6-methyl-3′-(trifluoromethyl)biphenyl-3-yl]ethyl}-9H-purin-6-amine] | 50 to 100 | > 1000 |
| COc1c(C(C)Nc2ncnc3[nH]cnc23)cc(Cl)c(C)c1-c1ccc(F)c(C(=O)N(C)C)c1 (stereo not shown) [Example 94, 3′-chloro-4-fluoro-6′-methoxy-N,N,2′-trimethyl-5′-[1-(9H-purin-6-ylamino)ethyl]biphenyl-3-carboxamide] | < 50 | < 100 |
| COc1cc(-c2c(C)c(Cl)cc(C(C)Nc3ncnc4[nH]cnc34)c2OC)ccc1F (stereo not shown) [Example 95, N-[1-(5-chloro-4′-fluoro-2,3′-dimethoxy-6-methylbiphenyl-3-yl)ethyl]-9H-purin-6-amine] | < 50 | 500 to 1000 |
